Test results published in ChEMBL document CHEMBL1151766, “Engineering stabilized vascular endothelial growth factor-A antagonists: synthesis, structural characterization, and bioactivity of grafted analogues of cyclotides” (J Med Chem, 2008).

How the values were obtained:
BaF3 = assay: Cytotoxicity against VEGF-A induced mouse BAF3-VEGF-R2 cells at >10 uM; type: functional, cell-based
[1] = Toxicity in human erythrocytes assessed as hemolytic activity at 50 uM; type: cell-based, Erythrocyte; details: read-out: Activity

SMILES: CC(C)C[C@@H]1NC(=O)CNC(=O)[C@H](CC(N)=O)NC(=O)[C@H](CCCNC(=N)N)NC(=O)[C@H]([C@@H](C)O)NC(=O)[C@H](CS)NC(=O)[C@H](C(C)C)NC(=O)[C@@H]2CCCN2C(=O)[C@H](CCC(=O)O)NC(=O)[C@H](CO)NC(=O)[C@H](CS)NC(=O)[C@H]([C@@H](C)O)NC(=O)[C@H](CS)NC(=O)CNC(=O)[C@@H]2CCCN2C(=O)[C@H]([C@@H](C)O)NC(=O)[C@H](CC(N)=O)NC(=O)[C@H](CS)NC(=O)[C@H]([C@@H](C)O)NC(=O)CNC(=O)CNC(=O)[C@H](C(C)C)NC(=O)[C@H](CS)NC(=O)[C@H]([C@@H](C)O)NC(=O)[C@H](CCC(=O)O)NC(=O)CNC(=O)[C@H](CS)NC(=O)[C@H](C(C)C)NC(=O)[C@@H]2CCCN2C1=O
- Activity (BaF3): Toxic

SMILES: CC(C)C[C@@H]1NC(=O)CNC(=O)[C@H](CC(N)=O)NC(=O)[C@H](CCCNC(=N)N)NC(=O)[C@H]([C@@H](C)O)NC(=O)[C@@H]2CSSC[C@@H]3NC(=O)[C@H]([C@@H](C)O)NC(=O)CNC(=O)CNC(=O)[C@H](C(C)C)NC(=O)[C@@H]4CSSC[C@H](NC(=O)[C@H]([C@@H](C)O)NC(=O)[C@H](CSSC[C@H](NC(=O)[C@H](C(C)C)NC(=O)[C@@H]5CCCN5C1=O)C(=O)NCC(=O)N[C@@H](CCC(=O)O)C(=O)N[C@@H]([C@@H](C)O)C(=O)N4)NC(=O)CNC(=O)[C@@H]1CCCN1C(=O)[C@H]([C@@H](C)O)NC(=O)[C@H](CC(N)=O)NC3=O)C(=O)N[C@@H](CO)C(=O)N[C@@H](Cc1c[nH]c3ccccc13)C(=O)N1CCC[C@H]1C(=O)N[C@@H](C(C)C)C(=O)N2 [KALATA B1]
- hemolysis at 50 µM [1]: 50%
